From ChEMBL document CHEMBL1151006, “Synthesis of bicyclic thiazolidine PAF antagonists” (Bioorg Med Chem Lett, 1993)

Assay: Half life in rats after intravenous administration
Type: ADME, organism-based
Conditions: rat, in vivo

O=C(c1ccccc1)c1cccc(NC(=O)[C@H]2OC(=O)N3[C@@H](c4cccnc4)SC[C@@H]23)c1
half-life: 42 min

O=C(c1ccccc1)c1cccc(NC(=O)[C@@H]2CSC(c3cccnc3)N2)c1 (some centres not stated)
half-life: 60 min
